Experimental findings from patent US12077483B2, “Modified amine lipids” (Intellia Therapeutics, Inc., priority 2018, dated 2024) are described below.

The subject of test [1] is rat TTR. Description: In vivo editing in rat liver, LNP with Cas9 mRNA and sgRNA G534, NGS. As to conditions: Table 11, Sprague Dawley female rats i.v., liver 6-7 days post dose. How it is done:
In brief, to quantitatively determine the efficiency of editing at the target location in the genome, genomic DNA was isolated and deep sequencing was utilized to identify the presence of insertions and deletions introduced by gene editing.
PCR primers were designed around the target site (e.g., B2M), and the genomic area of interest was amplified. Additional PCR was performed according to the manufacturer's protocols (Illumina) to add the necessary chemistry for sequencing. The amplicons were sequenced on an Illumina MiSeq instrument. The reads were aligned to the relevant reference genome (e.g., GRCm38) after eliminating those having low quality scores. The resulting files containing the reads were mapped to the reference genome (BAM files), where reads that overlapped the target region of interest were selected and the number of wild type reads versus the number of reads which contain an insertion, substitution, or deletion was calculated.
The editing percentage (e.g., the “editing efficiency” or “percent editing”) is defined as the total number of sequence reads with insertions or deletions over the total number of sequence reads, including wild type.
To assess lipid efficacy, dose response experiments were performed in vivo. Cas9 mRNA of Example 115 was formulated as LNPs with a gRNA targeting TTR (G00534; SEQ ID NO: 5). These LNPs were formulated, prepared and analyzed as described in Example 115 using a 1:2 w/w ratio of a sgRNA and Cas9 mRNA. Composition analysis for these LNPs are described in Table 10.
For efficacy, Sprague Dawley female rats were dosed i.v. at 0.1 mpk or 0.03 mpk. 6-7 days post dose, rats were euthanized by CO2 asphyxiation. Blood was collected into serum separator tubes. Liver biopsy processed for gDNA and assessed for editing by NGS methods described in Example 115. Results are shown in Table 11 and FIGS. 12A and 12B. For tolerability, Sprague Dawley female rats were dosed at 6 mpk and 24 hours post dose the animals were euthanized by CO2 asphyxiation. Blood was collected into serum separator tubes and sent to an external CRO for quantitation of liver enzymes via a liver enzyme panel.

For a further test, the system named is mouse TTR gene. Nature of the test: In vivo editing in mouse liver, LNP with Cas9 mRNA and sgRNA G282, NGS. As to conditions: G00282, CD-1 female mice i.v., liver; for Mean % Indel: Table 5; for Editing Mean % Indel: Table 7. In short, it runs like this:
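CD-1 female mice, 6-10 weeks old, received one IV tail-vein dose of LNP (amine lipid/DSPC/cholesterol/PEG-2k-DMG, N/P about 6) carrying Cas9 mRNA and TTR-targeting sgRNA G282 at 1:1 w/w, 0.1 mpk unless otherwise noted. Liver editing at day 6 or 7 was the percentage of NGS reads with indels.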

The subject of test [2] is rat TTR. Description: Serum TTR levels in rats after LNP delivery. It counts as in vivo. Particulars: Table 11, G534, Sprague Dawley female rats i.v.
Another test concerns TTR in HUH7 cells. Description: In vitro editing in HUH7 cells, LNP with Cas9 mRNA and sgRNA G000502, NGS. It counts as cell-based, human. As to conditions: Table 14; 2000 ng RNA per well, cells harvested 6 hours post-transfection, biological duplicate, G000502 target locus. How it is done: A series of compounds based on Compound 46 that vary by the inclusion of a C4-12 alkyl at the R^3 position of Formula (IA) (as illustrated in FIG. 13A) were tested for in vitro editing. The human hepatocellular carcinoma cell line […] (Japanese Collection of Research Bioresources Cell Bank, Cat. JCRB0403) was cultured in DMEM media supplemented with 10% fetal bovine serum and 1% Penicillin-Streptomycin. Cells were plated at a density of 20,000 cells/well in a 96-well plate 24 hours prior to transfection (˜80% confluent at time of transfection). The LNPs were formulated at a 1:2 w/w ratio of sgRNA and Cas9 mRNA using the cross flow procedure with lipid molar compositions as described in Table 13 at an N/P ratio of 6.0. LNP compositions were analyzed for average particle size, polydispersity (pdi), total RNA content and encapsulation efficiency of RNA as described in Example 115. Analysis of average particle size, polydispersity (PDI), total RNA content and encapsulation efficiency of RNA are shown in Table 13. LNPs were diluted into media, incubated for 5 minutes at 37 C and pipetted onto cells at a dose of 2000 ng RNA per well. Each condition was assayed in biological duplicate. Cells were harvested post-transfection at 6 hours. Genomic DNA was extracted using 50 μL/well BuccalAmp DNA Extraction solution (Epicentre, Cat. QE09050) according to manufacturer's protocol. All DNA samples were subjected to PCR and subsequent NGS analysis for editing at the G000502 target locus, as described above. As shown in Table 14 and FIG. 13B, all compounds tested were efficacious for in vitro editing.

A further test concerns mouse B2M gene. Description: In vivo editing in mouse liver, LNP with Cas9 mRNA and sgRNA G650, NGS. As to conditions: Table 3; guide G650; CD-1 female mice, 0.1 mpk i.v., liver at 6 or 7 days; Exp. 2-7. In short, it runs like this:
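Female CD-1 mice given LNPs (amine lipid/DSPC/cholesterol/PEG-2k-DMG; N/P ~6; sgRNA G650:Cas9 mRNA 1:1 w/w) i.v. at 0.1 mpk unless noted. Liver collected day 6 or 7; B2M editing = indel reads over total reads by amplicon NGS.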

For `CCCCC/C=C\C/C=C\CCCCCCCC(=O)OCC(COC(=O)CCC(OCCCCCCCC)OCCCCCCCC)COC(=O)OCCCN(CC)CC` (centres unmarked) [Compound 49, 3-((4,4-bis(octyloxy)butanoyl)oxy)-2-((((3-(diethylamino)propoxy)carbonyl)oxy)methyl)propyl (9Z,12Z)-octadeca-9,12-dienoate, reference compound], the “Editing % Editing” value in the test with rat TTR [1] (dose 0.03 mpk) was found to be 4.76%; with rat TTR [1] (dose 0.1 mpk), 25.62%. For the same compound, the “Mean % Indel” value in the test with mouse TTR gene (dose 0.1 mpk) came to 26.8%; with mouse TTR gene (dose 0.3 mpk) it was 60.6%. Besides, the “Editing Mean % Indel” value in the test on mouse TTR gene (dose 0.1 mpk) amounted to 50.0%; in the test with mouse TTR gene (dose 0.3 mpk), 67.7%. Further, the “Serum TTR” value in the test with rat TTR [2] (dose 0.03 mpk) turned out to be 790.9 µg/mL; in the test with rat TTR [2] (dose 0.1 mpk) it was 669.5 µg/mL. Moreover, the “Serum TTR % TSS” value with rat TTR [2] (dose 0.03 mpk) came out at 94% TSS; in the test on rat TTR [2] (dose 0.1 mpk), 79% TSS. For the same compound, the Editing in the test on TTR in HUH7 cells amounted to 22.6%.
As for `CCCCC/C=C\C/C=C\CCCCCCCC(=O)OCC(COC(=O)CCCCCCC/C=C\C/C=C\CCCCC)OC(=O)CCC(CCCCCCCC)OC(=O)NCCN(C)CC` (centres unmarked) [Compound 34, 2-((4-(((2-(ethyl(methyl)amino)ethyl)carbamoyl)oxy)dodecanoyl)oxy)propane-1,3-diyl (9Z,9′Z,12Z,12′Z)-bis(octadeca-9,12-dienoate)], the “Editing % Editing” value in the test with rat TTR [1] (dose 0.03 mpk) amounted to 21.22%; with rat TTR [1] (dose 0.1 mpk), 53.9%. The “Editing Mean % Indel” value came out at 54.9% in the test on mouse TTR gene (dose 0.1 mpk), 68.3% in the test on mouse TTR gene (dose 0.3 mpk) and 44.8% in the test on mouse B2M gene. The “Serum TTR” value in the test on rat TTR [2] (dose 0.03 mpk) was found to be 514.2 µg/mL; with rat TTR [2] (dose 0.1 mpk), 188.9 µg/mL. The “Serum TTR % TSS” value was 61% TSS in the test with rat TTR [2] (dose 0.03 mpk) and 22% TSS in the test with rat TTR [2] (dose 0.1 mpk). The same compound yielded an Editing with TTR in HUH7 cells of 49.0%.
Regarding `CCCCC/C=C\C/C=C\CCCCCCCC(=O)OCC(COC(=O)CCCCCCC/C=C\C/C=C\CCCCC)OC(=O)CCC(CCCCCCCC)OC(=O)NCCN1CCCC1` (centres unmarked) [Compound 51, 2-((4-(((2-(pyrrolidin-1-yl)ethyl)carbamoyl)oxy)dodecanoyl)oxy)propane-1,3-diyl (9Z,9′Z,12Z,12′Z)-bis(octadeca-9,12-dienoate)], the Editing in the test on TTR in HUH7 cells was determined as 69.0%.
As to `CCCCC/C=C\C/C=C\CCCCCCCC(=O)OCC(COC(=O)CCCCCCC/C=C\C/C=C\CCCCC)OC(=O)CCC(CCCCCC)OC(=O)NCCN1CCCC1` (racemic) [Compound 50, 2-((4-(((2-(pyrrolidin-1-yl)ethyl)carbamoyl)oxy)decanoyl)oxy)propane-1,3-diyl (9Z,9′Z,12Z,12′Z)-bis(octadeca-9,12-dienoate)], the “Editing % Editing” value in the test on rat TTR [1] (dose 0.03 mpk) is listed as 26.9%; in the test with rat TTR [1] (dose 0.1 mpk) it was 62.6%. Moreover, the “Serum TTR” value with rat TTR [2] (dose 0.03 mpk) came to 581.7 µg/mL; in the test with rat TTR [2] (dose 0.1 mpk) it was 116.6 µg/mL. Further, the results for the “Serum TTR % TSS” value in the test on rat TTR [2] (dose 0.03 mpk) and in the test on rat TTR [2] (dose 0.1 mpk) were 69% TSS and 14% TSS, respectively. The compound further displayed an Editing in the test on TTR in HUH7 cells of 64.3%.
